# Measured values published in US6852673B2, “Herbicidal pyridine compounds” (BASF Aktiengesellschaft, priority 1998, dated 2005).
# Key:
# Format in all cases: in vivo
# [1] = tested on: Zea mays (ZEAMX); test: Pre-emergence herbicidal evaluation, maize
# Summary of the method: (§1)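 Seeds are mixed into potting soil and planted; the pots are sprayed with aqueous acetone containing compound (about 0.0125 to 0.4 kg/ha equivalent); they are kept and watered in a greenhouse; each pot is rated at 2 to 4 weeks.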
# [2] = tested on: Glycine max (GLXMA); test: Pre-emergence herbicidal evaluation, soyabeans
# Summary of the method: as §1
# [3] = tested on: Abutilon theophrasti (ABUTH); test: Post-emergence herbicidal evaluation, velvetleaf; settings: rated 2 to 4 weeks after treatment
# Summary of the method: (§2)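 Rating scale 0 (same growth as untreated control) to 9 (death), scored 2–4 weeks after treatment. Sprays were water-diluted acetone solutions applied to emerged plants at about 0.03–0.4 kg/ha test compound per pot, followed by standard greenhouse care.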
# [4] = tested on: Echinochloa grus galli (ECHCG); test: Pre-emergence herbicidal evaluation, barnyard grass
# Summary of the method: as §1
# [5] = tested on: Matricaria inodora (MATIN); test: Post-emergence herbicidal evaluation, mayweed; settings: rated 2 to 4 weeks after treatment
# Summary of the method: as §2
# [6] = tested on: Digitaria sanguinalis (DIGSA); test: Post-emergence herbicidal evaluation, large crabgrass; settings: rated 2 to 4 weeks after treatment
# Summary of the method: as §2
# [7] = tested on: Oryza sativum (ORYSA); test: Post-emergence herbicidal evaluation, rice; settings: rated 2 to 4 weeks after treatment
# Summary of the method: as §2
# [8] = tested on: Stellaria media (STEME); test: Post-emergence herbicidal evaluation, chickweed; settings: rated 2 to 4 weeks after treatment
# Summary of the method: as §2
# [9] = tested on: Triticum aestivum (TRZAW); test: Post-emergence herbicidal evaluation, winter wheat; settings: rated 2 to 4 weeks after treatment
# Summary of the method: as §2
# [10] = tested on: Lamium purpureum (LAMPU); test: Post-emergence herbicidal evaluation, purple deadnettle; settings: rated 2 to 4 weeks after treatment
# Summary of the method: as §2
# [11] = tested on: Ambrosia artemiisifolia (AMBEL); test: Pre-emergence herbicidal evaluation, ragweed
# Summary of the method: as §1
# [12] = tested on: Setaria viridis (SETVI); test: Pre-emergence herbicidal evaluation, green foxtail
# Summary of the method: as §1
# [13] = tested on: Ipomoea hederacea (IPOHE); test: Pre-emergence herbicidal evaluation, morning glory
# Summary of the method: as §1
# [14] = tested on: Lamium purpureum (LAMPU); test: Pre-emergence herbicidal evaluation, purple deadnettle
# Summary of the method: as §1
# [15] = tested on: Ipomoea hederacea (IPOHE); test: Post-emergence herbicidal evaluation, morning glory; settings: rated 2 to 4 weeks after treatment
# Summary of the method: as §2
# [16] = tested on: Zea mays (ZEAMX); test: Post-emergence herbicidal evaluation, maize; settings: rated 2 to 4 weeks after treatment
# Summary of the method: as §2
# [17] = tested on: Solanum nigrum (SOLNI); test: Pre-emergence herbicidal evaluation, black nightshade
# Summary of the method: as §1
# [18] = tested on: Solanum nigrum (SOLNI); test: Post-emergence herbicidal evaluation, black nightshade; settings: rated 2 to 4 weeks after treatment
# Summary of the method: as §2
# [19] = tested on: Glycine max (GLXMA); test: Post-emergence herbicidal evaluation, soyabeans; settings: rated 2 to 4 weeks after treatment
# Summary of the method: as §2
# [20] = tested on: Echinochloa grus galli (ECHCG); test: Post-emergence herbicidal evaluation, barnyard grass; settings: rated 2 to 4 weeks after treatment
# Summary of the method: as §2
# [21] = tested on: Abutilon theophrasti (ABUTH); test: Pre-emergence herbicidal evaluation, velvetleaf
# Summary of the method: as §1
# [22] = tested on: Alopecurus myosuroides (ALOMY); test: Pre-emergence herbicidal evaluation, black grass
# Summary of the method: as §1
# [23] = tested on: Hordeum vulgare (HORVW); test: Post-emergence herbicidal evaluation, winter barley; settings: rated 2 to 4 weeks after treatment
# Summary of the method: as §2
# [24] = tested on: Hordeum vulgare (HORVW); test: Pre-emergence herbicidal evaluation, winter barley
# Summary of the method: as §1
# [25] = tested on: Matricaria inodora (MATIN); test: Pre-emergence herbicidal evaluation, mayweed
# Summary of the method: as §1
# [26] = tested on: Oryza sativum (ORYSA); test: Pre-emergence herbicidal evaluation, rice
# Summary of the method: as §1
smiles,measurement,setting,value
Cc1cc(OCC=C(Cl)Cl)nc(Oc2cc(C(F)(F)F)nn2C)c1 [Example 12],ZEAMX rating,[1]; dose 0.013 kg/ha,0 (0 - No effect)
same,ZEAMX rating,[1]; dose 0.025 kg/ha,2 (2 - Slight effect)
same,ZEAMX rating,[1]; dose 0.1 kg/ha,3 (3 - Moderate effect)
same,ZEAMX rating,[1]; dose 0.4 kg/ha,5 (5 - Definite injury)
same,GLXMA rating,[2]; dose 0.013 kg/ha,1 (1 - Trace effect)
same,GLXMA rating,[2]; dose 0.025 kg/ha,2 (2 - Slight effect)
same,GLXMA rating,[2]; dose 0.1 kg/ha,3 (3 - Moderate effect)
same,GLXMA rating,[2]; dose 0.4 kg/ha,4 (4 - Injury)
same,ABUTH rating,[3]; dose 0.03 kg/ha,8 (8 - Approaching complete kill)
same,ABUTH rating,[3]; dose 0.1 kg/ha,9 (9 - Complete kill)
same,ABUTH rating,[3]; dose 0.4 kg/ha,9 (9 - Complete kill)
same,ECHCG rating,[4]; dose 0.013 kg/ha,3 (3 - Moderate effect)
same,ECHCG rating,[4]; dose 0.025 kg/ha,5 (5 - Definite injury)
same,ECHCG rating,[4]; dose 0.1 kg/ha,8 (8 - Approaching complete kill)
same,ECHCG rating,[4]; dose 0.4 kg/ha,9 (9 - Complete kill)
same,MATIN rating,[5]; dose 0.03 kg/ha,8 (8 - Approaching complete kill)
same,MATIN rating,[5]; dose 0.1 kg/ha,8 (8 - Approaching complete kill)
same,MATIN rating,[5]; dose 0.4 kg/ha,8 (8 - Approaching complete kill)
same,DIGSA rating,[6]; dose 0.03 kg/ha,8 (8 - Approaching complete kill)
same,DIGSA rating,[6]; dose 0.1 kg/ha,9 (9 - Complete kill)
same,DIGSA rating,[6]; dose 0.4 kg/ha,9 (9 - Complete kill)
same,ORYSA rating,[7]; dose 0.03 kg/ha,2 (2 - Slight effect)
same,ORYSA rating,[7]; dose 0.1 kg/ha,3 (3 - Moderate effect)
same,ORYSA rating,[7]; dose 0.4 kg/ha,4 (4 - Injury)
same,STEME rating,[8]; dose 0.03 kg/ha,8 (8 - Approaching complete kill)
same,STEME rating,[8]; dose 0.1 kg/ha,8 (8 - Approaching complete kill)
same,STEME rating,[8]; dose 0.4 kg/ha,8 (8 - Approaching complete kill)
same,TRZAW rating,[9]; dose 0.03 kg/ha,3 (3 - Moderate effect)
same,TRZAW rating,[9]; dose 0.1 kg/ha,3 (3 - Moderate effect)
same,TRZAW rating,[9]; dose 0.4 kg/ha,5 (5 - Definite injury)
same,LAMPU rating,[10]; dose 0.03 kg/ha,8 (8 - Approaching complete kill)
same,LAMPU rating,[10]; dose 0.1 kg/ha,8 (8 - Approaching complete kill)
same,LAMPU rating,[10]; dose 0.4 kg/ha,8 (8 - Approaching complete kill)
same,AMBEL rating,[11]; dose 0.013 kg/ha,8 (8 - Approaching complete kill)
same,AMBEL rating,[11]; dose 0.025 kg/ha,8 (8 - Approaching complete kill)
same,AMBEL rating,[11]; dose 0.1 kg/ha,9 (9 - Complete kill)
same,AMBEL rating,[11]; dose 0.4 kg/ha,9 (9 - Complete kill)
same,SETVI rating,[12]; dose 0.013 kg/ha,5 (5 - Definite injury)
same,SETVI rating,[12]; dose 0.025 kg/ha,9 (9 - Complete kill)
same,SETVI rating,[12]; dose 0.1 kg/ha,9 (9 - Complete kill)
same,SETVI rating,[12]; dose 0.4 kg/ha,9 (9 - Complete kill)
same,IPOHE rating,[13]; dose 0.013 kg/ha,2 (2 - Slight effect)
same,IPOHE rating,[13]; dose 0.025 kg/ha,3 (3 - Moderate effect)
same,IPOHE rating,[13]; dose 0.1 kg/ha,9 (9 - Complete kill)
same,IPOHE rating,[13]; dose 0.4 kg/ha,9 (9 - Complete kill)
same,LAMPU rating,[14]; dose 0.013 kg/ha,8 (8 - Approaching complete kill)
same,LAMPU rating,[14]; dose 0.025 kg/ha,9 (9 - Complete kill)
same,LAMPU rating,[14]; dose 0.1 kg/ha,9 (9 - Complete kill)
same,LAMPU rating,[14]; dose 0.4 kg/ha,9 (9 - Complete kill)
same,IPOHE rating,[15]; dose 0.03 kg/ha,9 (9 - Complete kill)
same,IPOHE rating,[15]; dose 0.1 kg/ha,9 (9 - Complete kill)
same,IPOHE rating,[15]; dose 0.4 kg/ha,9 (9 - Complete kill)
same,ZEAMX rating,[16]; dose 0.03 kg/ha,2 (2 - Slight effect)
same,ZEAMX rating,[16]; dose 0.1 kg/ha,4 (4 - Injury)
same,ZEAMX rating,[16]; dose 0.4 kg/ha,6 (6 - Herbicidal effect)
same,SOLNI rating,[17]; dose 0.013 kg/ha,5 (5 - Definite injury)
same,SOLNI rating,[17]; dose 0.025 kg/ha,8 (8 - Approaching complete kill)
same,SOLNI rating,[17]; dose 0.1 kg/ha,8 (8 - Approaching complete kill)
same,SOLNI rating,[17]; dose 0.4 kg/ha,8 (8 - Approaching complete kill)
same,SOLNI rating,[18]; dose 0.03 kg/ha,8 (8 - Approaching complete kill)
same,SOLNI rating,[18]; dose 0.1 kg/ha,8 (8 - Approaching complete kill)
same,SOLNI rating,[18]; dose 0.4 kg/ha,8 (8 - Approaching complete kill)
same,GLXMA rating,[19]; dose 0.03 kg/ha,5 (5 - Definite injury)
same,GLXMA rating,[19]; dose 0.1 kg/ha,8 (8 - Approaching complete kill)
same,GLXMA rating,[19]; dose 0.4 kg/ha,8 (8 - Approaching complete kill)
same,ECHCG rating,[20]; dose 0.03 kg/ha,9 (9 - Complete kill)
same,ECHCG rating,[20]; dose 0.1 kg/ha,9 (9 - Complete kill)
same,ECHCG rating,[20]; dose 0.4 kg/ha,9 (9 - Complete kill)
same,ABUTH rating,[21]; dose 0.013 kg/ha,2 (2 - Slight effect)
same,ABUTH rating,[21]; dose 0.025 kg/ha,7 (7 - Good herbicidal effect)
same,ABUTH rating,[21]; dose 0.1 kg/ha,8 (8 - Approaching complete kill)
same,ABUTH rating,[21]; dose 0.4 kg/ha,9 (9 - Complete kill)
same,ALOMY rating,[22]; dose 0.013 kg/ha,3 (3 - Moderate effect)
same,ALOMY rating,[22]; dose 0.025 kg/ha,8 (8 - Approaching complete kill)
same,ALOMY rating,[22]; dose 0.1 kg/ha,9 (9 - Complete kill)
same,ALOMY rating,[22]; dose 0.4 kg/ha,9 (9 - Complete kill)
same,HORVW rating,[23]; dose 0.03 kg/ha,3 (3 - Moderate effect)
same,HORVW rating,[23]; dose 0.1 kg/ha,5 (5 - Definite injury)
same,HORVW rating,[23]; dose 0.4 kg/ha,6 (6 - Herbicidal effect)
same,HORVW rating,[24]; dose 0.013 kg/ha,3 (3 - Moderate effect)
same,HORVW rating,[24]; dose 0.025 kg/ha,4 (4 - Injury)
same,HORVW rating,[24]; dose 0.1 kg/ha,5 (5 - Definite injury)
same,HORVW rating,[24]; dose 0.4 kg/ha,8 (8 - Approaching complete kill)
same,MATIN rating,[25]; dose 0.013 kg/ha,8 (8 - Approaching complete kill)
same,MATIN rating,[25]; dose 0.025 kg/ha,9 (9 - Complete kill)
same,MATIN rating,[25]; dose 0.1 kg/ha,9 (9 - Complete kill)
same,MATIN rating,[25]; dose 0.4 kg/ha,9 (9 - Complete kill)
same,ORYSA rating,[26]; dose 0.013 kg/ha,0 (0 - No effect)
same,ORYSA rating,[26]; dose 0.025 kg/ha,0 (0 - No effect)
same,ORYSA rating,[26]; dose 0.1 kg/ha,1 (1 - Trace effect)
same,ORYSA rating,[26]; dose 0.4 kg/ha,3 (3 - Moderate effect)
